# Test results reported in US20150045387A1, “Bi-Aromatic And Tri-Aromatic Compounds As NADPH Oxidase 2 (Nox2) Inhibitors” (The University of Surrey, priority 2011, published 2015).
# Key:
# [1] = test system: microvascular endothelial cells (SVEC4-10); assay: basal and angiotensin II induced O2.- production, lucigenin-chemiluminescence; format: cell-based, mouse; details: LMH001 5 μM, 24 h in culture, cell homogenates, NADPH-dependent
# Experimental: FIG. 10 is a graph showing the effects of LMH001 in culture on basal and angiotensin II induced O2.^− production by microvascular endothelial cells (SVEC4-10). SVEC4-10 cells were cultured in medium alone (Basal) or in the presence of Angiotensin II (AngII, 200 nM) with or without LMH001 (5 μM) for 24 h. Cells were then harvested and cell homogenates were used for the measurement of NADPH-dependent O2.^− production by lucigenin-chemiluminescence. *P<0.05 (n=3 experiments). […]
# O2^− production by different cell types was measured using lucigenin (5 μM)-chemiluminescence. A microplate luminometer (LumiStar, BMG) was used, which allows the examination of 96 samples at the same time with kinetic reading facilities. […] Dark-adapted lucigenin (5 μM) was added into the well through an auto-dispenser located in the dark chamber just before reading. The light emission was recorded over a 60 minute period and expressed as arbitrary MLU measured by the illuminometer. Each experiment was performed in triplicate and the mean of 3 blank readings was subtracted from each corrected value for each reading. […]
# O2^− production was also studied using total cell homogenate (for the endothelial cells and the fibroblasts). […] Soluble protein concentration was determined using a kit from Bio-Rad Laboratories Ltd. (Hertfordshire, U.K.). […]
# SVEC4-10 cells = assay: normal cell proliferation, MTS assay, SVEC4-10; format: cell-based, mouse; details: SVEC4-10, LMH001 up to 10 μM, 24 h
# Experimental: A) SVEC4-10 cells and HepG2 cells were cultured in the presence or absence of LHM001 (0-10 μM) for 24 h and tested for cell proliferation using a MTS assay kit. B) HL-60 cells were cultured in the presence or absence of LMH001 (0-10 μM), and cell proliferation was examined at 6, 12 and 24 h of culture.
# (§1) The mouse lymph node microvascular endothelial cell line (SVEC4-10) was from the American Type Culture Collection (CRL-2167) and grown in DMEM, containing 10% (v/v) heat inactivated foetal calf serum, 100 U/mL penicillin and […] streptomycin, in a humidified atmosphere at 37° C. with 5% CO2.
# The ex vivo proliferative capabilities of isolated BMSC or cultured cells were analyzed using the MTS proliferation assay. BMSC were suspended in Dulbecco's modified Eagle's medium supplemented with 5% fetal bovine serum (Sigma), 100 U/mL penicillin and 100 μg/mL streptomycin, and plated in 1% gelatin coated 96-well plates at a density of 1×10^5 cells/well in triplicate. After 24 hours in culture medium containing LMH001 (0-10 μM), proliferation was assessed using the MTS (CellTiter 96 AQ; Promega, Madison, USA) assay according to the manufacturer's protocol. The absorbance at 490 nm was read using an ELISA plate reader (Perkin elmer), and the proliferation index calculated relative to the controls. The mean of 3 blank readings was subtracted from each corrected value.
# [2] = test system: mouse microvascular endothelial cells (SVEC4-10 cells); assay: MTT assay for cytotoxicity, SVEC4-10; format: cell-based; details: SVEC4-10, LMH001 5 and 10 μM, 24 h
# Experimental: FIG. 8 is a graph showing no cytotoxicity of LMH001 on living mouse microvascular endothelial cells (SVEC4-10 cells) and human liver hepatocyte cells (HepG2 cells), assessed by means of an MTT assay. Cells were cultured with LMH001 (5 and 10 μM) for 24 h. MTT is a yellow tetrazolium reagent which can be converted by living cells to insoluble blue formazan crystal in the medium. The insoluble blue formazan crystals were then dissolved in DMSO and measured for absorbance at 570 nm by a plate reader. Higher absorbance corresponds to more living cells. Results are presented as mean±SD (n=3).
# as §1
# The potential cytotoxicity of LMH001 on cultured endothelial cells (SVEC4-10) and liver cells (HepG2) was assessed using the MIT assay as described previously (16). […] Absorbance was measured at 570 nm in an ELISA plate reader and the mean of 3 blank readings was subtracted from each corrected value.
compound,measurement,setting,value
"O=C(OCc1cccc(O)c1O)c1ccc(O)c(CO)c1 [LMH001, (2,3,-dihydroxyphenyl)methyl 4-hydroxy-3-(hydroxymethyl)benzoate]",AngII-induced endothelial O2.- production,[1]; Angiotensin II 200 nM,completely inhibited
same,basal cell O2.- production,[1]; medium alone,no effect
same,normal cell proliferation under physiological condition,SVEC4-10 cells,no significant effect
same,"cytotoxicity, MTT absorbance at 570 nm",[2],no significant difference
